Laboratory results as given in patent publication US20150272939A1, “Identification of Small Molecule Inhibitors of Jumonji AT-Rich Interactive Domain 1A (JARID1A) and 1B (JARID1B) Histone Demethylase” (Yale University, priority 2012, published 2015).
Several values for one entry are separate records, joined by “and”; a condition that tells them apart may be missing. Equal entries are not always repeated. Structures can show the parent of a compound that is named as a salt. Where two headings read alike, the source gives them in different places.

Tests used:
JARID1B = target: T1, JARID1B (Homo sapiens, UniProt Q9UGL1); experiment: FLAG-JARID1B histone demethylase assay with AlphaScreen detection (HTS and dose response); format: biochemical; conditions: for Inhibitory effect (percent) / inhibition at 20 µM: high-throughput screen, compound 20 μM; for Validation result of HTS active: effect of the compound in the JARID1B AlphaScreen demethylase assay / Assay Signal (percent): validation of HTS actives; for Validation result of HTS active: effect of the compound in the JARID1B AlphaScreen demethylase assay: total signal before subtraction of artifact signal; for Assay − Artifact Signal (percent): assay signal minus artifact signal; for Assay Signal (percent): effect of compound in JARID1B AlphaScreen assay; for inhibition at 20 µM: read-out: Inhibitory effect (percent);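 as to Assay Signal (percent): compound tested at 20 µM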;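 as to Assay − Artifact Signal (percent): compound tested at 20 µM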;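 as to all read-outs here: FLAG-tagged JARID1B at 4 nM acting on a biotinylated H3K4me3 peptide, demethylation read by AlphaScreen luminescence, with hits checked against bio-H3K4me2 without enzyme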
T1 construct: The FLAG tagged full length JARID1B enzyme was expressed in Sf21 insect cells using FLAG-JARID1B baculoviruses; FLAG (N); made in house; host or cells: Sf21 insect cells (baculovirus)
T1 sequence (Q9UGL1 whole entry): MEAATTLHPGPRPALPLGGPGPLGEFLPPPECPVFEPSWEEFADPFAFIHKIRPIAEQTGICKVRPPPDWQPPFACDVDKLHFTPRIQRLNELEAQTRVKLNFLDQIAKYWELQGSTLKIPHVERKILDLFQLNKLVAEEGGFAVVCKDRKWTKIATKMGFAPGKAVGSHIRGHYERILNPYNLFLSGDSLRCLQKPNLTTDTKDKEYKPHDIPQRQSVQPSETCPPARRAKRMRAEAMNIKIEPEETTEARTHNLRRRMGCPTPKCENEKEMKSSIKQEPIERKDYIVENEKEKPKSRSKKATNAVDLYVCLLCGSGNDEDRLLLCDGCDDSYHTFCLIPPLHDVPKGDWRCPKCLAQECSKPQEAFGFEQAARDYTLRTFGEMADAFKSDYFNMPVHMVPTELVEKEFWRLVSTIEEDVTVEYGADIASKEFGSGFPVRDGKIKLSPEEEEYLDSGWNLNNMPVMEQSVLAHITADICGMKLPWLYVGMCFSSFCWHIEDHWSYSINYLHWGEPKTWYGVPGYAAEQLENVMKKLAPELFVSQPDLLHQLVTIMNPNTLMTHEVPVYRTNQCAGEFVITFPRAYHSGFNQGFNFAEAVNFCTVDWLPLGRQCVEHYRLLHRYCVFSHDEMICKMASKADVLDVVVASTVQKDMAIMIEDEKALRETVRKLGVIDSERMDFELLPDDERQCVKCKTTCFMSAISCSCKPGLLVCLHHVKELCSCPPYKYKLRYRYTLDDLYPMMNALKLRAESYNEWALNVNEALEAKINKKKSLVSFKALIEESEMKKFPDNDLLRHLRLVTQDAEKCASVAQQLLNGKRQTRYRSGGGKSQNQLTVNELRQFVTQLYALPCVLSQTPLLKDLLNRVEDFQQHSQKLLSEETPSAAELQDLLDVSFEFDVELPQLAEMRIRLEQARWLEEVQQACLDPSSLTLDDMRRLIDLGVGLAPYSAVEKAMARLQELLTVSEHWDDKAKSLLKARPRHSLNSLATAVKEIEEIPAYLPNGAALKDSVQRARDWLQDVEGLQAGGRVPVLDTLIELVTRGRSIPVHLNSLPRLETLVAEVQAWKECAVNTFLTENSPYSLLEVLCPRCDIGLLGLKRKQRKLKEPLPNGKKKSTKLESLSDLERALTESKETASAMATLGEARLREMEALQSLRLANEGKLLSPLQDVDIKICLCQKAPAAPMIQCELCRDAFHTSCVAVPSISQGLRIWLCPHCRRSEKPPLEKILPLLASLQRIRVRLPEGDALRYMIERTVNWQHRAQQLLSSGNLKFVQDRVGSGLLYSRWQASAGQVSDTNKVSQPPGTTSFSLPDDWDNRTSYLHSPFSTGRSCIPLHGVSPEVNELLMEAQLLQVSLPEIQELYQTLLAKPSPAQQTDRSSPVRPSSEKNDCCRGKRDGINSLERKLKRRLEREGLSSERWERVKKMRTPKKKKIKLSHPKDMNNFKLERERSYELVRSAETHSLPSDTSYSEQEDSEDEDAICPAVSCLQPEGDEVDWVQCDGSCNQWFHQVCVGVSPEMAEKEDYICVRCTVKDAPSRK

[1] = AlphaScreen counterscreen against bio-H3K4me2 peptide in the absence of enzyme (artifact signal); conditions: for Artifact signal: effect of the compound when it is incubated with bio-H3K4me2 peptide: counterscreen, no enzyme; for Artifact Signal (percent): effect of the compound when incubated with bio-H3K4me2 peptide (counterscreen, no enzyme);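 as to all read-outs here: counterscreen run without enzyme against bio-H3K4me2 peptide to remove false positive hits from the JARID1 demethylase AlphaScreen screen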
[2] = standard demethylase conditions (10 μM α-KG, 50 μM Fe (II))
[3] = IDs marked *: additional hits under reaction condition with 1 mM α-KG

O=c1c(O)c(-c2ccc(O)c(O)c2)oc2cc(O)cc(O)c12 [YU034090, QUERCETIN, reference compound]
Inhibitory effect (percent) (JARID1B; [2]): 80.17% | Validation result of HTS active: effect of the compound in the JARID1B AlphaScreen demethylase assay (JARID1B): 62.82 | Artifact signal: effect of the compound when it is incubated with bio-H3K4me2 peptide [1]: 58.14

C/C1=C2/[N-][C@H]([C@H](CC(N)=O)[C@@]2(C)CCC(=O)NC[C@@H](C)OP(=O)([O-])O[C@H]2[C@@H](O)[C@@H](n3cnc4cc(C)c(C)cc43)O[C@@H]2CO)[C@]2(C)N=C(/C(C)=C3N=C(/C=C4N=C1[C@@H](CCC(N)=O)C\4(C)C)[C@@H](CCC(N)=O)[C@]\3(C)CC(N)=O)[C@@H](CCC(N)=O)[C@]2(C)CC(N)=O.[Co] [YU034137, COBALAMINE, reference compound]
Assay − Artifact Signal (percent) (JARID1B): 28.34% | Inhibitory effect (percent) (JARID1B; [2]): 63.90% | Assay Signal (percent) (JARID1B): 27.06% | Artifact Signal (percent) [1]: 1.27%

C=C1c2cccc(O)c2C(=O)C2=C(O)[C@]3(O)C(=O)C(C(N)=O)=C(O)[C@@H](N(C)C)[C@@H]3[C@@H](O)[C@H]12 [YU034167, METHACYCLINE HYDROCHLORIDE, reference compound]
inhibition at 20 µM (JARID1B; [2]): 51.5% | Validation result of HTS active: effect of the compound in the JARID1B AlphaScreen demethylase assay (JARID1B): 62.51 | Artifact signal: effect of the compound when it is incubated with bio-H3K4me2 peptide [1]: 56.96

Cc1cc2c(C(C)C)c(O)c(O)c(C=O)c2c(O)c1-c1c(C)cc2c(C(C)C)c(O)c(O)c(C=O)c2c1O [YU034280, GOSSYPOL-ACETIC ACID COMPLEX, reference compound]
inhibition at 20 µM (JARID1B; [2]): 78.2% | Validation result of HTS active: effect of the compound in the JARID1B AlphaScreen demethylase assay (JARID1B): 54.61 | Artifact signal: effect of the compound when it is incubated with bio-H3K4me2 peptide [1]: 64.46

C[C@@](Cc1ccc(O)c(O)c1)(NN)C(=O)O [YU034292, CARBIDOPA, reference compound]
Assay − Artifact Signal (percent) (JARID1B): 26.51% | inhibition at 20 µM (JARID1B; [2]): 100% | Assay Signal (percent) (JARID1B): 80.27% | Artifact Signal (percent) [1]: 53.76%

O=c1oc2c(O)c(O)cc3c(=O)oc4c(O)c(O)cc1c4c23 [YU034320, ELLAGIC ACID, reference compound]
Assay − Artifact Signal (percent) (JARID1B): 9.70% | Inhibitory effect (percent) (JARID1B; [2]): 61.25% and 40.88% | Assay Signal (percent) (JARID1B): 12.08% | Validation result of HTS active: effect of the compound in the JARID1B AlphaScreen demethylase assay (JARID1B): 37.80 | Artifact signal: effect of the compound when it is incubated with bio-H3K4me2 peptide [1]: 31.44 | Artifact Signal (percent) [1]: 2.37%

O=C(O)CCCC[C@@H]1SC[C@@H]2NC(=O)N[C@@H]21 [YU034331, BIOTIN, reference compound]
inhibition at 20 µM (JARID1B; [2]): 104% | Validation result of HTS active: effect of the compound in the JARID1B AlphaScreen demethylase assay (JARID1B): 104.67 | Artifact signal: effect of the compound when it is incubated with bio-H3K4me2 peptide [1]: 99.61

N[C@@H](Cc1ccc(O)c(O)c1)C(=O)O [YU034332, LEVODOPA, reference compound]
Assay − Artifact Signal (percent) (JARID1B): 41.47% | inhibition at 20 µM (JARID1B; [2]): 68.8% | Assay Signal (percent) (JARID1B): 55.74% | Artifact Signal (percent) [1]: 14.27%

CCCCC(CC)CNC(=N)NC(=N)NCCCCCCNC(=N)NC(=N)NCC(CC)CCCC (stereo not drawn) [YU034347, ALEXIDINE HYDROCHLORIDE, reference compound]
Assay − Artifact Signal (percent) (JARID1B): 66.40% | inhibition at 20 µM (JARID1B; [2]): 80.6% | Assay Signal (percent) (JARID1B): 72.00% | Artifact Signal (percent) [1]: 5.60%

CN(C)CCCN1c2ccccc2Sc2ccc(C(F)(F)F)cc21 [YU034370, TRIFLUPROMAZINE HYDROCHLORIDE, reference compound]
inhibition at 20 µM (JARID1B; [2]): 66% | Validation result of HTS active: effect of the compound in the JARID1B AlphaScreen demethylase assay (JARID1B): 4.23 | Artifact signal: effect of the compound when it is incubated with bio-H3K4me2 peptide [1]: −2.95

Cc1cc(N)c2ccccc2[n+]1CCCCCCCCCC[n+]1c(C)cc(N)c2ccccc21 [YU034372, DEQUALINIUM CHLORIDE, reference compound]
Assay − Artifact Signal (percent) (JARID1B): 32.23% | inhibition at 20 µM (JARID1B; [2]): 42.1% | Assay Signal (percent) (JARID1B): 32.80% | Artifact Signal (percent) [1]: 0.57%

CCCCCCCCCCCCCCCC[N+](C)(C)C [YU034377, CETRIMONIUM BROMIDE, reference compound]
inhibition at 20 µM (JARID1B; [2]): 94.2% | Validation result of HTS active: effect of the compound in the JARID1B AlphaScreen demethylase assay (JARID1B): −6.81 | Artifact signal: effect of the compound when it is incubated with bio-H3K4me2 peptide [1]: −6.13

CN(C)C(=S)SSC(=S)N(C)C [YU034426, THIRAM, reference compound]
Assay − Artifact Signal (percent) (JARID1B): 59.23% | inhibition at 20 µM (JARID1B; [2]): 64.2% | Assay Signal (percent) (JARID1B): 66.73% | Artifact Signal (percent) [1]: 7.49%

O=[N+]([O-])c1cc(O)c(O)c([N+](=O)[O-])c1 [YU034463, 3,5-DINITROCATECHOL, reference compound]
Assay − Artifact Signal (percent) (JARID1B): 27.05% | Inhibitory effect (percent) (JARID1B; [2]): 49.87% | Assay Signal (percent) (JARID1B): 38.78% | Artifact Signal (percent) [1]: 11.72%

CCC(=O)O[C@]1(C(=O)CCl)[C@@H](C)C[C@H]2[C@@H]3CCC4=CC(=O)C=C[C@]4(C)[C@@]3(F)[C@@H](O)C[C@@]21C [YU034506, CLOBETASOL PROPIONATE, reference compound]
inhibition at 20 µM (JARID1B; [2]): 98.9% | Validation result of HTS active: effect of the compound in the JARID1B AlphaScreen demethylase assay (JARID1B): 5.62 | Artifact signal: effect of the compound when it is incubated with bio-H3K4me2 peptide [1]: −1.34

NC(=O)c1ncn([C@@H]2O[C@H](CO)[C@@H](O)[C@H]2O)n1 [YU034518, RIBAVIRIN, reference compound]
Assay − Artifact Signal (percent) (JARID1B): 23.17% | inhibition at 20 µM (JARID1B; [2]): 79.7% | Assay Signal (percent) (JARID1B): 17.20% | Artifact Signal (percent) [1]: −5.97%

N.N.[Cl][Pt][Cl] [YU034538, CISPLATIN, reference compound]
Assay − Artifact Signal (percent) (JARID1B): 40.64% | Inhibitory effect (percent) (JARID1B; [2]): 40.06% | Assay Signal (percent) (JARID1B): 49.17% | Artifact Signal (percent) [1]: 8.53%

NNC(=O)c1ccncc1.Nc1ccc(C(=O)O)c(O)c1 [YU034557, PASINIAZID, reference compound]
Assay − Artifact Signal (percent) (JARID1B): 42.63% | Inhibitory effect (percent) (JARID1B; [2]): 46.37% | Assay Signal (percent) (JARID1B): 44.38% | Artifact Signal (percent) [1]: 1.76%

CC(=O)C(C)O[Si](C(C)C)(C(C)C)C(C)C (stereo not drawn) [YU035082]
Assay − Artifact Signal (percent) (JARID1B): 15.58% | inhibition at 20 µM (JARID1B; [3]): 95.8% | Assay Signal (percent) (JARID1B): 22.36% | Artifact Signal (percent) [1]: 6.78%

CNC(C(=O)N(C)OC)C(C)C (stereo not drawn) [YU035100]
Assay − Artifact Signal (percent) (JARID1B): 11.75% | inhibition at 20 µM (JARID1B; [2]): 88% | Assay Signal (percent) (JARID1B): 13.14% | Artifact Signal (percent) [1]: 1.39%

C=CCO[C@H]1[C@H](O)[C@H](OCC=C)[C@H](O)[C@@H](OCC=C)[C@@H]1O [YU035165]
Assay − Artifact Signal (percent) (JARID1B): 13.07% | inhibition at 20 µM (JARID1B; [2]): 49.5% | Assay Signal (percent) (JARID1B): 15.19% | Artifact Signal (percent) [1]: 2.11%

CCN(CC)C(=S)SSC(=S)N(CC)CC [YU035331, reference compound]
Assay − Artifact Signal (percent) (JARID1B): 40.15% | inhibition at 20 µM (JARID1B; [3]): 40.5% | Assay Signal (percent) (JARID1B): 36.77% | Artifact Signal (percent) [1]: −3.39%

C=CC1=C(C(=O)O)N2C(=O)[C@@H](NC(=O)/C(=N\OCC(=O)O)c3csc(N)n3)[C@H]2SC1 [YU039791, CEFIXIME TRIHYDRATE, reference compound]
inhibition at 20 µM (JARID1B; [2]): 105% | Validation result of HTS active: effect of the compound in the JARID1B AlphaScreen demethylase assay (JARID1B): 104.49 | Artifact signal: effect of the compound when it is incubated with bio-H3K4me2 peptide [1]: 96.65

O=C(O[C@@H]1Cc2c(O)cc(O)cc2O[C@@H]1c1cc(O)c(O)c(O)c1)c1cc(O)c(O)c(O)c1 [YU040338, Epigallocatechin gallate, reference compound]
Assay − Artifact Signal (percent) (JARID1B): 15.48% | inhibition at 20 µM (JARID1B; [2]): 100% | Assay Signal (percent) (JARID1B): 96.04% | Artifact Signal (percent) [1]: 80.56%

Cc1cc(-c2ccc(NC(=O)CCC(=O)O)c(C)c2)ccc1NC(=O)CCC(=O)O [YU104987]
inhibition at 20 µM (JARID1B; [2]): 55.2% | Validation result of HTS active: effect of the compound in the JARID1B AlphaScreen demethylase assay (JARID1B): 7.41 | Artifact signal: effect of the compound when it is incubated with bio-H3K4me2 peptide [1]: 3.17

O=C(CCCCCCC(=O)N(c1ccccc1)c1ccccc1)N(c1ccccc1)c1ccccc1 [YU105079]
inhibition at 20 µM (JARID1B; [2]): 68.9% | Validation result of HTS active: effect of the compound in the JARID1B AlphaScreen demethylase assay (JARID1B): 44.39 | Artifact signal: effect of the compound when it is incubated with bio-H3K4me2 peptide [1]: 43.24

Cc1ccc(C)c(CN2CCN(Cc3ccccc3)CC2)c1 [YU105182]
inhibition at 20 µM (JARID1B; [2]): 35.3% | Validation result of HTS active: effect of the compound in the JARID1B AlphaScreen demethylase assay (JARID1B): 3.14 | Artifact signal: effect of the compound when it is incubated with bio-H3K4me2 peptide [1]: −1.74
